Measured values published in patent US6914045B2, “Glycopeptide antibiotics” (Wyeth Holdings Corporation, priority 2001, dated 2005).
Values after ≈ are worked out from the molar mass of the structure shown.

Key:
Experiment in all cases: in vitro antibacterial evaluation, MIC by broth dilution
Format in all cases: cell-based
[1] = system: Enterococcus sp.; conditions: broth dilution, 18 hours at 35° C.
In short: (§1)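 Step 1: dilute antibiotic across 64-0.06 μg/mL in Muller-Hinton II […]. Step 2: inoculate at 5×10^5 CFU/mL.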

[2] = system: Escherichia coli
In short: as §1

[3] = system: Staphylococcus sp.; conditions: broth dilution, 18 hours at 35° C.; for MIC Staphylococcus aureus (GC 1131): strain GC 1131
In short: as §1

[4] = system: Streptococcus sp.; conditions: broth dilution, 18 hours at 35° C.
In short: as §1

- MIC Enterococcus avium (GC 4558) ([1]; Enterococcus avium (GC 4558)): 64 µg/mL (≈ 45.3 µM)
- MIC Enterococcus faecalis (ATCC 29212) ([1]; Enterococcus faecalis (ATCC 29212)): >64 µg/mL
- MIC Enterococcus faecalis (GC 2242) ([1]; Enterococcus faecalis (GC 2242)): >64 µg/mL
- MIC Enterococcus faecalis (GC 2691) ([1]; Enterococcus faecalis (GC 2691)): >64 µg/mL
- MIC Enterococcus faecalis (GC 3059) ([1]; Enterococcus faecalis (GC 3059)): >64 µg/mL
- MIC Enterococcus faecalis (GC 4552) ([1]; Enterococcus faecalis (GC 4552)): >64 µg/mL
- MIC Enterococcus faecalis (GC 4553) ([1]; Enterococcus faecalis (GC 4553)): >64 µg/mL
- MIC Enterococcus faecalis (GC 4554) ([1]; Enterococcus faecalis (GC 4554)): >64 µg/mL
- MIC Enterococcus faecalis (GC 6189) ([1]; Enterococcus faecalis (GC 6189)): >64 µg/mL
- MIC Enterococcus faecium (GC 2243) ([1]; Enterococcus faecium (GC 2243)): >64 µg/mL
- MIC Enterococcus faecium (GC 4556) ([1]; Enterococcus faecium (GC 4556)): >64 µg/mL
- MIC Enterococcus faecium (GC 4557) ([1]; Enterococcus faecium (GC 4557)): 16 µg/mL (≈ 11.3 µM)
- MIC Enterococcus faecalis (ATCC 29212) ([1]; strain ATCC 29212): >64 µg/mL
- MIC Enterococcus faecalis (GC 2242) ([1]; strain GC 2242): >64 µg/mL
- MIC Enterococcus faecium (GC 2243) ([1]; strain GC 2243): >64 µg/mL
- MIC Enterococcus faecalis (GC 2691) ([1]; strain GC 2691): >64 µg/mL
- MIC Enterococcus faecalis (GC 3059) ([1]; strain GC 3059): >64 µg/mL
- MIC Enterococcus faecalis (GC 4552) ([1]; strain GC 4552): >64 µg/mL
- MIC Enterococcus faecalis (GC 4553) ([1]; strain GC 4553): >64 µg/mL
- MIC Enterococcus faecalis (GC 4554) ([1]; strain GC 4554): >64 µg/mL
- MIC Enterococcus faecium (GC 4556) ([1]; strain GC 4556): >64 µg/mL
- MIC Enterococcus faecium (GC 4557) ([1]; strain GC 4557): 16 µg/mL (≈ 11.3 µM)
- MIC Enterococcus avium (GC 4558) ([1]; strain GC 4558): 64 µg/mL (≈ 45.3 µM)
- MIC Enterococcus faecalis (GC 6189) ([1]; strain GC 6189): >64 µg/mL
- MIC Escherichia coli (ATCC 25922) ([2]; strain ATCC 25922, 18 hours at 35° C.): >64 µg/mL
- MIC Escherichia coli (GC 4559) ([2]; strain GC 4559, 18 hours at 35° C.): >64 µg/mL
- MIC Escherichia coli (GC 4560) ([2]; strain GC 4560, 18 hours at 35° C.): 8 µg/mL (≈ 5.66 µM)
- MIC Staphylococcus aureus (GC 1131) ([3]; inoculum 5×10^5 CFU/mL): 32 µg/mL (≈ 22.6 µM)
- MIC Staphylococcus aureus (ATCC 29213) ([3]; strain ATCC 29213): 32 µg/mL (≈ 22.6 µM)
- MIC Staphylococcus aureus (GC 1131) [3]: 32 µg/mL (≈ 22.6 µM)
- MIC Staphylococcus aureus (GC 3051) ([3]; strain GC 3051): 32 µg/mL (≈ 22.6 µM)
- MIC Staphylococcus aureus (GC 3053) ([3]; strain GC 3053): 32 µg/mL (≈ 22.6 µM)
- MIC Staphylococcus aureus (GC 4541) ([3]; strain GC 4541): 16 µg/mL (≈ 11.3 µM)
- MIC Staphylococcus aureus (GC 4542) ([3]; strain GC 4542): 32 µg/mL (≈ 22.6 µM)
- MIC Staphylococcus aureus-SMITH (GC 4543) ([3]; strain GC 4543): 16 µg/mL (≈ 11.3 µM)
- MIC Staphylococcus aureus (GC 4544) ([3]; strain GC 4544): 32 µg/mL (≈ 22.6 µM)
- MIC Staphylococcus aureus (GC 4545) ([3]; strain GC 4545): 32 µg/mL (≈ 22.6 µM)
- MIC Coagulase Negative Staphylococcus (GC 4547) ([3]; strain GC 4547): 16 µg/mL (≈ 11.3 µM)
- MIC Coagulase Negative Staphylococcus (GC 4548) ([3]; strain GC 4548): 8 µg/mL (≈ 5.66 µM)
- MIC Coagulase Negative Staphylococcus (GC 4549) ([3]; strain GC 4549): 8 µg/mL (≈ 5.66 µM)
- MIC Coagulase Negative Staphylococcus (GC 4551) ([3]; strain GC 4551): 16 µg/mL (≈ 11.3 µM)
- MIC Coagulase Negative Staphylococcus (GC 6257) ([3]; strain GC 6257): 8 µg/mL (≈ 5.66 µM)
- MIC Staphylococcus aureus-SMITH (GC 4543) ([3]; strain SMITH GC 4543): 16 µg/mL (≈ 11.3 µM)
- MIC Streptococcus agalactiae (GC 4564) ([4]; Streptococcus agalactiae (GC 4564)): 16 µg/mL (≈ 11.3 µM)
- MIC Streptococcus pneumoniae (ATCC 6301) ([4]; Streptococcus pneumoniae (ATCC 6301)): 8 µg/mL (≈ 5.66 µM)
- MIC Streptococcus pneumoniae (GC 1894) ([4]; Streptococcus pneumoniae (GC 1894)): 4 µg/mL (≈ 2.83 µM)
- MIC Streptococcus pneumoniae (GC 4565) ([4]; Streptococcus pneumoniae (GC 4565)): 16 µg/mL (≈ 11.3 µM)
- MIC Streptococcus pyogenes (GC 4563) ([4]; Streptococcus pyogenes (GC 4563)): 16 µg/mL (≈ 11.3 µM)
- MIC Streptococcus pneumoniae (ATCC 6301) ([4]; strain ATCC 6301): 8 µg/mL (≈ 5.66 µM)
- MIC Streptococcus pneumoniae (GC 1894) ([4]; strain GC 1894): 4 µg/mL (≈ 2.83 µM)
- MIC Streptococcus pyogenes (GC 4563) ([4]; strain GC 4563): 16 µg/mL (≈ 11.3 µM)
- MIC Streptococcus agalactiae (GC 4564) ([4]; strain GC 4564): 16 µg/mL (≈ 11.3 µM)
- MIC Streptococcus pneumoniae (GC 4565) ([4]; strain GC 4565): 16 µg/mL (≈ 11.3 µM)
Structure (SMILES): COc1cccc(C2OC3C(OC4C(CO)OC(Oc5ccc(CC6NC(=O)C(C(C)c7ccccc7)NC(=O)CNC(=O)C(CO)NC(=O)C(C(O)C7CNC(=N)N7C7OC(CO)C(O)C(O)C7O)NC(=O)C(C(O)C7CNC(=N)N7)NC6=O)cc5)C(O)C4O)OC(CO)C(O)C3O2)c1 (single isomer, unassigned) [Example 137a, Cyclo[glycyl-β-methylphenylalanyl-O-[4-O-[2,3-O-(3-methoxybenzylidene)hexopyranosyl]-hexopyranosyl]tyrosyl-3-(2-iminoimidazolidin-4-yl)seryl-3-(3-hexopyranosyl-2-iminoimidazolidin-4-yl)serylseryl]]
- MIC Staphylococcus haemolyticus (GC 4546) ([3]; strain GC 4546): 16 µg/mL (≈ 11.3 µM)
